Tested on: Pseudomonas aeruginosa ATCC 15442
Test: Suspension test: log reduction of Pseudomonas aeruginosa after a specified contact time
Format: cell-based
Method: The target organism Pseudomonas aeruginosa ATCC 15442 was taken from freezer stocks and grown for 24 hours on tryptone soy agar (TSA) at 37° C. A second subculture was produced from the first and grown with the same conditions. A test suspension was then created by adding loopfuls of organism to tryptone buffered saline and adjusting the cell concentration to 1×10^8 and 5×10^8 CFU/ml using an internally established calibration curve spectrophotometer at a wavelength of 600 nm. To establish the precise CFU/ml a 1 ml aliquot was then taken from the test suspension and serially diluted down to 10^−6 and 10^−7, 1 ml of each dilution was then plated in duplicate using the pour plate method on to TSA. The plates were then incubated for 24 hours at 37° C. and enumerated.
For each Active Ingredient tested a series of 3 samples were prepared in sterile distilled water;
Test sample 1—Active Ingredient alone (to measure basic efficacy of the Active Ingredient)
Test sample 2—Active Ingredient in combination with polyglyceryl-10 caprylate/caprate (to measure the efficacy of the combination of active ingredient and polyglycerol ester)
Control—A control sample of polyglyceryl-10 caprylate/caprate was prepared in deionized water to measure the efficacy of polyglycerol ester alone.
Each test sample was prepared at a concentration 10% higher than that of the target concentration to account for the dilution effect from the addition of the test organism suspension during the test procedure.
A test mixture was prepared by adding a 0.1 ml aliquot of test organism suspension to a tube followed by 0.9 ml of test sample (prepared as above). The combination was then mixed and a timer started immediately.
Upon achieving the specified contact time the test mixture was deactivated by adding a 0.1 ml aliquot of the test mixture to 0.9 ml of neutralizing broth and the whole solution mixed. The solution was left for 5 minutes to ensure the action of the active ingredient was effectively neutralized.
To quantify the surviving number of organisms in the neutralized test mixture, 4×0.025 ml aliquots were taken and spot plated onto the surface of dried TSA. The plates were then incubated for 24 hours at 37° C.
For spot plating, colonies from the incubated plates were enumerated using the lower count limit of <1 and the upper count limit of >150. […] For the upper limit, if 156 colonies were counted on a plate, >150 would be recorded and 150 would be used for the calculation.
[formula] • N0 is the number of cells per ml in test mixture at the beginning of contact time. It is one-tenth of the weighted mean of N due to the tenfold dilution by the addition of the test product.
Enumeration and Calculation of T (Test Mixture) • First, the mean average of cfu per 0.025 ml spots was established using the below calculation;
Log Reduction Calculations (N0− T) • Before calculating the log reduction both N0 and T were converted into a logarithm base 10 value. For example;
To calculate the final log reduction the following calculation was used;
The test procedure outlined above was used to test for synergy between polyglyceryl-10 caprylate/caprate (PG10CC) and the various active ingredients listed in Table 1. Varying concentrations were prepared and were tested at the times listed in Table 1 for the presence of Pseudomonas aeruginosa.

For `[H]/N=C(\N/C(=N/[H])NCCCCCCNC(=N)NC(=N)Nc1ccc(Cl)cc1)Nc1ccc(Cl)cc1` [chlorohexidine], the “Log Reduction” value (chlorohexidine 64 ppm, contact time 5 minutes) was 3.44.

For `O=C(O)c1ccccc1` [Benzoic acid], the “Log Reduction” value (Benzoic acid 2000 ppm, contact time 2 hours) was under 2.85.

For `O=c1[nH]sc2ccccc12`, the “Log Reduction” value (Benzisothiazoline 100 ppm, contact time 48 hours) was 3.84.

For Zinc pyrithione, the “Log Reduction” value (Zinc pyrithione 400 ppm, contact time 7 days) was 2.88.

In the case of `CC(O)C(=O)O` (stereo not drawn) [Lactic acid], the “Log Reduction” value (Lactic acid 2000 ppm, contact time 3 hours) was 4.03.

In the case of `O=C(O)CO` [Glycolic acid], the “Log Reduction” value (Glycolic acid 1000 ppm, contact time 30 minutes) was 2.85.

Reference: US20230157282A1, “Synergistic Preservative/Personal Care Composition With A Polyglycerol Ester” (ARCH UK BIOCIDES LTD, priority 2020, published 2023)
